Data on nine compounds can be found in patent US12577234B2, “Antagonists of the muscarinic acetylcholine receptor M4” (Vanderbilt University, priority 2017, dated 2026).

By IC50 is commonly meant the concentration at which inhibition is half-maximal.

The target of this experiment is T1, human mAChR M4 (Homo sapiens, UniProt P08173).
T1 construct: expressed in transfected cells; host or cells: CHO-K1 (ATCC), stably co-expressing chimeric G protein Gqi5
T1 sequence (P08173 1-479): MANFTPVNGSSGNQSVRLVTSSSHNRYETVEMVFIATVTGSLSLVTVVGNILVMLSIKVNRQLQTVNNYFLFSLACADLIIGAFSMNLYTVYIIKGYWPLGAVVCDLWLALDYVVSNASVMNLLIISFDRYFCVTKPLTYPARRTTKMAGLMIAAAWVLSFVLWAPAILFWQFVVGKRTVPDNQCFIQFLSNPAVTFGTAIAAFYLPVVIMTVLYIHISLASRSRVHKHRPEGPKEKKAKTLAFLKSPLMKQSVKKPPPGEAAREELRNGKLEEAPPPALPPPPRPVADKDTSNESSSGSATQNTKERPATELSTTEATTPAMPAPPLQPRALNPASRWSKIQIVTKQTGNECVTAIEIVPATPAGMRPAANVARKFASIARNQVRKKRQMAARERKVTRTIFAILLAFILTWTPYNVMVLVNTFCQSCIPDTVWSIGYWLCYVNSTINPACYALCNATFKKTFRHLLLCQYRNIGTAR
In words: mAChR M4 cell-based functional assay (calcium mobilization, EC80 acetylcholine), human M4. Conditions: for IC50: M4/Gqi5/CHO-K1 cells, decrease of EC80 acetylcholine response; for Emin: human M4, % ACh maximum at 30 μM. Here is the method:
Human or rat M4 cDNA, along with the chimeric G protein Gqi5, were transfected into Chinese hamster ovary (CHO-K1) cells purchased from the American Type Culture Collection using Lipofectamine2000. M4/Gqi5/CHO cells were grown in Ham's F-12 medium containing 10% heat-inactivated fetal bovine serum (FBS), 20 mM HEPES, 500 μg/mL G418 sulfate, and 200 μg/mL Hygromycin B.
For high throughput measurement of agonist-evoked increases in intracellular calcium, CHO-K1 cells stably expressing muscarinic receptors were plated in growth medium lacking G418 and hygromycin at 15,000 cells/20 μL/well in Greiner 384-well black-walled, tissue culture (TC)-treated, clear-bottom plates (VWR). Cells were incubated overnight at 37° C. and 5% CO2. […] Compound master plates were formatted in a 10 point concentration-response curve (CRC) format (1:3 dilutions) in 100% DMSO with a starting concentration of 10 or 1 mM using a BRAVO liquid handler (Agilent). Test compound CRCs were then transferred to daughter plates (240 nL) using the Echo acoustic plate reformatter (Labcyte, Sunnyvale, CA) and then diluted into assay buffer (40 μL) to a 2× stock using a Thermo Fisher Combi (Thermo Fisher Scientific, Waltham, MA).
Calcium flux was measured using the Functional Drug Screening System (FDSS) 6000 or 7000 (Hamamatsu Corporation, Tokyo, Japan) as an increase in the fluorescent static ratio. Compounds were applied to cells (20 μL, 2×) using the automated system of the FDSS at 2 seconds into the protocol and the data were collected at 1 Hz. […] Agonist activity was analyzed as a concentration-dependent increase in calcium mobilization upon compound addition. Positive allosteric modulator activity was analyzed as a concentration-dependent increase in the EC20 acetylcholine response. Antagonist activity was analyzed as a concentration-dependent decrease in the EC80 acetylcholine response; for the purposes of the tables herein, an IC50 (inhibitory concentration 50) was calculated as a concentration-dependent decrease of the response elicited by an EC80 concentration of acetylcholine. Concentration-response curves were generated using a four-parameter logistical equation in XLFit curve fitting software (IDBS, Bridgewater, NJ) for Excel (Microsoft, Redmond, WA) or Prism (GraphPad Software, Inc., San Diego, CA) or the Dotmatics software platform (Dotmatics, Bishop's Stortford, UK).

Consider `Cc1cccnc1CN1C[C@H]2CC(COc3ccc(-c4cc(F)ccc4Cl)nn3)C[C@H]2C1` (stereo partly drawn) [Compound 118, (3aR,6aS)-5-[[6-(2-chloro-5-fluoro-phenyl)pyridazin-3-yl]oxymethyl]-2-[(3-methyl-2-pyridyl)methyl]-3,3a,4,5,6,6a-hexahydro-1H-cyclopenta[c]pyrrole], for which, where the note is “Table 9”, the IC50 was determined as 694 nM and the Emin is reported as 2.25%.

For the compound `CC(=O)Nc1ccc(-c2ccc(N[C@@H]3C[C@@H]4CN(CCC(C)(C)C)C[C@@H]4C3)nn2)cc1` [Compound 39, N-[4-[6-[[(3aR,5r,6aS)-2-(3,3-Dimethylbutyl)-3,3a,4,5,6,6a-hexahydro-1H-cyclopenta[c]pyrrol-5-yl]amino]pyridazin-3-yl]phenyl]acetamide], where the note is “Table 9”, the IC50 is 8280 nM and the Emin is on record as 26.8%.

For the compound `CC(C)(C)CCN1C[C@H]2C[C@H](Nc3ccc(-c4cc(F)ccc4Cl)nn3)C[C@H]2C1` [Compound 28, (3aR,5s,6aS)-N-[6-(2-chloro-5-fluoro-phenyl)pyridazin-3-yl]-2-(3,3-dimethylbutyl)-3,3a,4,5,6,6a-hexahydro-1H-cyclopenta[c]pyrrol-5-amine], where the note is “Table 9”, the concentration for half-maximal inhibition (IC50) turned out to be 10 nM and the Emin came to 3.53%.

For the compound `Fc1ccc(-c2ccc(N[C@H]3C[C@@H]4CN(CC5CCOCC5)C[C@@H]4C3)nn2)cc1` [Compound 187, (3aR,5s,6aS)-N-[6-(4-fluorophenyl)pyridazin-3-yl]-2-(tetrahydropyran-4-ylmethyl)-3,3a,4,5,6,6a-hexahydro-1H-cyclopenta[c]pyrrol-5-amine], where the note is “Table 10”, the “Human M4 Emin” value is on record as 4% and the IC50 is 4.6 nM.

With `Cc1cnn(C)c1-c1ccc(OCC2C[C@@H]3CN(CC4CCCOC4)C[C@@H]3C2)nn1` (stereo partly drawn) [Compound 85, (3aR,6aS)-5-[[6-(2,4-dimethylpyrazol-3-yl)pyridazin-3-yl]oxymethyl]-2-(tetrahydropyran-3-ylmethyl)-3,3a,4,5,6,6a-hexahydro-1H-cyclopenta[c]pyrrole], under “Table 9”, the IC50 came to 4600 nM and the Emin was found to be 14.2%.

Regarding `CC1(CN2C[C@H]3C[C@H](Nc4ccc(-c5cc(F)ccc5Cl)nn4)C[C@H]3C2)COC1` [Compound 171, (3aR,5s,6aS)-N-[6-(2-chloro-5-fluoro-phenyl)pyridazin-3-yl]-2-[(3-methyloxetan-3-yl)methyl]-3,3a,4,5,6,6a-hexahydro-1H-cyclopenta[c]pyrrol-5-amine], where the note is “Table 10”, the “Human M4 Emin” value was determined as 4% and the IC50 was determined as 84.3 nM.

As for `Cc1cnn(C)c1-c1ccc(N[C@H]2C[C@@H]3CN(CC4CCOCC4)C[C@@H]3C2)nn1` [Compound 21, (3aR,5s,6aS)-N-[6-(2,4-dimethylpyrazol-3-yl)pyridazin-3-yl]-2-(tetrahydropyran-4-ylmethyl)-3,3a,4,5,6,6a-hexahydro-1H-cyclopenta[c]pyrrol-5-amine], under “Table 9”, the 50% inhibitory concentration (IC50) stood at 10 nM and the Emin amounted to 4.32%.

Consider `COc1ccccc1-c1ccc(N[C@H]2C[C@@H]3CN(CC4CCOCC4)C[C@@H]3C2)nn1` [Compound 199, (3aR,5s,6aS)-N-[6-(2-methoxyphenyl)pyridazin-3-yl]-2-(tetrahydropyran-4-ylmethyl)-3,3a,4,5,6,6a-hexahydro-1H-cyclopenta[c]pyrrol-5-amine], for which, for the setting “Table 10”, the “Human M4 Emin” value was 5% and the IC50 is 0.579 nM.

Take `CC(=O)Nc1ccc(-c2cnc(N[C@H]3C[C@@H]4CN(CC5CCOCC5)C[C@@H]4C3)cn2)cc1` [Compound 158, N-[4-[5-[[(3aR,5s,6aS)-2-(tetrahydropyran-4-ylmethyl)-3,3a,4,5,6,6a-hexahydro-1H-cyclopenta[c]pyrrol-5-yl]amino]pyrazin-2-yl]phenyl]acetamide]: under “Table 10”, the “Human M4 Emin” value is given as 10% and the IC50 amounted to 1090 nM.
